Source: patent US9468670B2, “Melatonin-based treatment and diagnosis of bile duct disease” (Texas A&M University System, priority 2011, dated 2016)

Experiments:
[1] = test system: PER1, BMAL1, CRY1, CLOCK, MT1 and MT2; experiment: Expression of clock genes and MT1/MT2 in cholangiocytes from treated rats (real-time PCR, FACS); assay type: in vivo, rat
Description: Male 344 Fischer rats (150-175 g) were purchased from Charles River (Wilmington, Mass.) and kept in a temperature-controlled environment (22° C.) with 12:12 hr light/dark cycles. Animals were fed ad libitum and had free access to food and drinking water. […] Before each surgical procedure, animals were anesthetized with sodium pentobarbital (50 mg/kg BW, IP). All animal experiments were performed in accordance with a protocol approved by the Scott and White and Texas A&M Health Science Center Institutional Animal Care and Use Committee and conform to the Guide for the Care and Use of Laboratory Animals published by the US National Institutes of Health (NIH Publication No. 85-23, revised 1996). In all animals, wet liver weight, body weight, wet liver weight to body weight ratio, and an index of liver cell growth including cholangiocytes were measured ([…] et al., 1988). […] FACS analysis was performed as described (Onori et al., 2010) using a C6 flow cytometer and analyzed by CFlow Software (Accuri Cytometers Inc. Ann Arbor, Mich.). […] The relative quantity of the selected protein (mean selected protein fluorescence) was expressed as mean FL1-A (samples)/mean FL-1A (secondary antibodies only). […] Data were expressed as relative mRNA levels ±SEM of the selected gene to glyceraldehyde-3-phosphate dehydrogenase (GAPDH) ratio.

miR-34a = experiment: miRNA expression in melatonin treated xenograft tumor tissues; conditions: melatonin treatment in vivo
Description: Methods: miRNA expression in normal human cholangiocytes (HiBECs), and the CCA cell lines Mz-ChA-1 and TFK cells, as well as melatonin treated xenograft tumor tissues were evaluated using a hybridization-based miRNA microarray. The expression of selected mature miRNAs was also assessed by real-time PCR. The effect of selected miRNAs on cell growth and invasion was assessed using miRNA modulators to alter cellular expression. Cell migration and invasion through a matrigel layer was quantitated using commercial assays. BCL-2, period homolog 1 (PER1) and tissue inhibitor of metalloproteinases 3 (TIMP-3) mRNA expression was quantitated by real-time PCR analysis.

[2] = Liver weight, body weight and liver to body weight ratio in normal and BDL rats; assay type: in vivo, rat; conditions: tap water containing melatonin (20 mg/L) for 1 week
Description: (§1) Male 344 Fischer rats (150-175 g) were purchased from Charles River (Wilmington, Mass.) and kept in a temperature-controlled environment (22° C.) with 12:12 hr light/dark cycles. Animals were fed ad libitum and had free access to food and drinking water. […] Before each surgical procedure, animals were anesthetized with sodium pentobarbital (50 mg/kg BW, IP). All animal experiments were performed in accordance with a protocol approved by the Scott and White and Texas A&M Health Science Center Institutional Animal Care and Use Committee and conform to the Guide for the Care and Use of Laboratory Animals published by the US National Institutes of Health (NIH Publication No. 85-23, revised 1996). In all animals, wet liver weight, body weight, wet liver weight to body weight ratio, and an index of liver cell growth including cholangiocytes were measured ([…] et al., 1988).

large cholangiocytes = experiment: PCNA expression and PKA, ERK1/2 phosphorylation (immunoblots) in purified large cholangiocytes from treated BDL rats; assay type: in vivo, rat
Description: Cholangiocyte proliferation was evaluated by immunoblots (Francis et al., 2008) by determination of PCNA protein expression (measured as ratio to b-actin protein expression) (Francis et al., 2008), and the phosphorylation of cAMP-dependent PKA and ERK1/2 (expressed as ratio to protein expression of the corresponding total proteins) in protein ([…]) from whole cell lysate from spleen (positive control) and large cholangiocytes from BDL rats treated with vehicle or melatonin. The intensity of the bands was determined by scanning video densitometry using the phospho-imager Storm 860 and the ImageQuant TL software version 2003.02 (GE Healthcare).

[3] = test system: large mouse cholangiocyte lines; experiment: cAMP levels (RIA) in large mouse cholangiocyte lines; assay type: cell-based; conditions: melatonin 10^−11 M for 5 minutes
Description: The expression of MT1 and MT2 receptors in immortalized large cholangiocytes was first evaluated by immunofluorescence (Francis et al., 2008). Images were visualized using an Olympus IX-71 confocal microscope. For all immunoreactions, negative controls (with normal serum from the same species substituted for the primary antibody) were included. It was next evaluated by commercially available radioimmunoassay (RIA) kits ([…] et al., 1998; Kato et al., 1992; […] et al., 1999; […] et al., 2004) for cAMP levels ([…] et al., 1998; Kato et al., 1992; […] Shiu et al., 2010). […] […] et al., 1992; Ramirez-Rodriguez et al., 2009; […], 1999). […] Shiu et al., 2010) before evaluating by immunoblots (Francis et al., 2008) the expression of PCNA and the phosphorylation of PKA and EKR1/2.

[4] = Serum transaminases (SGPT, SGOT) and total bilirubin in normal and BDL rats; assay type: in vivo, rat; conditions: tap water containing melatonin (20 mg/L) for 1 week
Description: as §1, with “1988). In the selected groups of animals, the serum levels of the transaminases, serum glutamate pyruvate transaminases (SGPT) and serum glutamic oxaloacetic transaminase (SGOT) and total bilirubin were evaluated using a Dimension RxL Max Integrated Chemistry system (Dade Behring Inc., Deerfield Ill.) by the Chemistry Department, Scott & White. Melatonin serum levels were measured by commercially available ELISA kits according to the instructions provided by the vendor (Genway, San Diego, Calif.).” for “1988).”

Question: What does the source list for `COc1ccc2[nH]cc(CCNC(C)=O)c2c1` [melatonin]?
Answer: Expression of MT1 and MT2 in cholangiocytes ([1]; BDL rats treated in vivo vs. regular tap water): decreased; Expression of PER1, BMAL1, CRY1 and CLOCK in cholangiocytes ([1]; normal and BDL rats treated in vivo vs. control cholangiocytes): decreased; miR-34a expression in Mz-ChA-1 xenograft tumor (miR-34a): significant reduction; Body weight ([2]; BDL rats): 150.1 ± 7.9 gm; Liver to body weight ratio ([2]; BDL rats): 4.5 ± 0.1; Liver weight ([2]; BDL rats): 6.7 ± 0.1 gm; Body weight ([2]; normal rats): 206.6 ± 3.9 gm; PCNA expression in large cholangiocytes (large cholangiocytes; melatonin-treated BDL rats vs. BDL control rats): decreased; Phosphorylation of cAMP-dependent PKA and ERK2 (but not ERK1) in large cholangiocytes (large cholangiocytes; melatonin-treated BDL rats vs. BDL controls): decreased; cAMP levels [3]: decreased; SGOT ([4]; BDL rats): 585.0 ± 162.4 Units/L; SGPT ([4]; BDL rats): 210.8 ± 45.9 Units/L; Total bilirubin ([4]; BDL rats): 7.3 ± 1.9 mg/L; SGOT ([4]; normal rats): 143.0 ± 36.0 Units/L; SGPT ([4]; normal rats): 69.4 ± 45.9 Units/L; Total bilirubin ([4]; normal rats): <0.1 mg/L
